Read-outs that look alike come from different tables or passages of the source.
Key:
[1] = Pharmacokinetic study of Compound A in healthy human males (Example 10); format: in vivo; conditions: male, plasma, po, suspension of sulfate salt; for Tmax: mean of 6 subjects; for Cmax / AUC: mean of 6 subjects (CV %); for concentration at 8 h: plasma 8 hours after dosing, read-out: C8 hrs; for concentration at 12 h: plasma 12 hours after dosing, read-out: C12 hrs
Method: A double-blind, single-rising dose, alternating two-panel, four-period, placebo-controlled study was conducted for Compound A in healthy adult males in the fasted state. Single doses of 20, 50, 100, 200, 400, 800 and 1200 mg of Compound A, or placebo, were administered as an oral suspension of the sulfate salt form of Compound A in sterile water. Each subject received increasing single oral doses of Compound A or placebo during each of the four treatment periods in alternate panels. Panel A dosage levels were 20, 100, 400 mg, and 400 mg with food. Panel B dosage levels were 50, 200, 800 and 1200 mg. For each period, 6 subjects received Compound A and 2 subjects received placebo as allocated by a randomized schedule. In Panel A, subjects who received 400 mg of Compound A also received 400 mg of Compound A with food. The safety of the subjects was monitored prior and subsequent to dosing by clinical adverse event reporting, measurement of vital signs, physical examinations, blood and urine laboratory safety tests, and ECGs. […]

[2] = Pharmacokinetic study of Compound A in combination with Indinavir with and without fasting (Example 12); format: in vivo; conditions: male, human, plasma, 600 mg Compound A (tablets) + 666 mg IDV (Indinavir), n=7; for concentration at 8 h / concentration at 12 h / concentration at 24 h: oral; for concentration at 8 h: plasma 8 hours after dosing, read-out: C8 hrs; for concentration at 12 h: plasma 12 hours after dosing, read-out: C12 hrs; for concentration at 24 h: plasma 24 hours after dosing, read-out: C24 hrs; for Cmax / Tmax / AUC: po, single oral dose; for Cmax / Tmax: arithmetic mean; for AUC: arithmetic mean (CV %)
Method: All of the subjects received the regimen once in the fasted state and once with a high-fat breakfast. The two single-dose treatments (fasted, fed) were administered in randomized crossover fashion, separated by one week. For treatments with food a breakfast consisting of two eggs, two strips of bacon, toast with two pats of butter (2 x 12.5 g), 120 g of fried potatoes and 240 ml of whole milk were consumed in no more than 15 minutes, and the test medication was administered within 5 minutes after completion of the breakfast. […] All of the doses of Compound A were administered as the sulfate salt form of Compound A. All of the Compound A doses were tablets containing 200 mg of Compound A. Other ingredients in the tablets included microcrystalline cellulose (Avicel PH 101), mannitol SD 200, croscarmellose sodium, hydroxypropyl cellulose and magnesium stearate. The tablets were film coated with a suspension of hydroxypropyl methylcellulose, hydroxypropyl cellulose and titanium dioxide. The safety of the subjects was monitored prior and subsequent to dosing by clinical adverse event reporting, measurement of vital signs, physical examinations, blood and urine laboratory safety tests, and ECGs. Plasma concentrations of Compound A were determined predose and at 0.5, 1, 1.5, 2, 3, 4, 6, 8, 12, 16, 20, 24, 30, 36 and 48 hours following each single dose in each period, using a reverse-phase HPLC column switching method with fluorescence detection.

CYPIIIA4 = CYPIIIA4 (Homo sapiens, UniProt P08684); assay: in vitro inhibition of CYPIIIA4; format: in vitro ADME
[3] = 50 mg, 50 mg single oral dose, fasted
[4] = 100 mg, 100 mg single oral dose, fasted
[5] = 200 mg, 200 mg single oral dose, fasted
[6] = 400 mg, 400 mg single oral dose, fasted
[7] = 400 mg, 400 mg single oral dose, fasted, CV not determinable
[8] = 400 mg, 400 mg w/food, single oral dose
[9] = 800 mg, 800 mg single oral dose, fasted
[10] = 800 mg, 800 mg single oral dose, fasted, mean (CV %)
[11] = 1200 mg, 1200 mg single oral dose, fasted
[12] = 1200 mg, 1200 mg single oral dose, fasted, mean (CV %)

Sequence of CYPIIIA4 (P08684 whole entry): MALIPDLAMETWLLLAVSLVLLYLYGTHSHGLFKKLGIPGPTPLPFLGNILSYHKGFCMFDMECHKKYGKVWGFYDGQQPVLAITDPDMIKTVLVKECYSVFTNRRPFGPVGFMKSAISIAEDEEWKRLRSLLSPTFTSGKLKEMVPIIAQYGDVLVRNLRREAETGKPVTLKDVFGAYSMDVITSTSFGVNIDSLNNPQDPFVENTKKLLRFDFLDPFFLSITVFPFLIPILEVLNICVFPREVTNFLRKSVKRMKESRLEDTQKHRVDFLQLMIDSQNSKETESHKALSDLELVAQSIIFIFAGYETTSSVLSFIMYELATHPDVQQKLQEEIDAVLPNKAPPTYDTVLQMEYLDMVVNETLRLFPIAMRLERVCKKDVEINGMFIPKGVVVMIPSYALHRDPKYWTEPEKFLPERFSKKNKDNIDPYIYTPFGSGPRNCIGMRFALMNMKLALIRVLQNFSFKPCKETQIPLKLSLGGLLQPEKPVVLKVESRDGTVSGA

Tmax [1, 3]: 0.6 h
Cmax [1, 3]: 12 nM
Tmax [1, 4]: 0.5 h
Cmax [1, 4]: 36 nM
Tmax [1, 5]: 0.7 h
AUC [1, 5]: 0.24 µM·h
Cmax [1, 5]: 85 nM
concentration at 8 h ([1]; 200 mg, 200 mg single oral dose, fasted, CV not determinable): 5 nM
Tmax [1, 6]: 1.8 h
AUC [1, 6]: 0.66 µM·h
Cmax [1, 6]: 166 nM
concentration at 8 h [1, 7]: 15 nM
concentration at 12 h [1, 7]: 6 nM
Tmax [1, 8]: 4 h
AUC [1, 8]: 0.8 µM·h
Cmax [1, 8]: 170 nM
concentration at 8 h ([1]; 400 mg, 400 mg w/food, single oral dose, mean (CV %)): 32 nM
concentration at 12 h ([1]; 400 mg, 400 mg w/food, single oral dose, CV not determinable): 7 nM
Tmax [1, 9]: 2.6 h
AUC [1, 9]: 3.09 µM·h
Cmax [1, 9]: 568 nM
concentration at 8 h [1, 10]: 126 nM
concentration at 12 h [1, 10]: 45 nM
Tmax [1, 11]: 2.1 h
AUC [1, 11]: 7.28 µM·h
Cmax [1, 11]: 1350 nM
concentration at 8 h [1, 12]: 338 nM
concentration at 12 h [1, 12]: 128 nM
concentration at 8 h ([2]; fasted): 583 nM
concentration at 12 h ([2]; fasted): 188 nM
concentration at 24 h ([2]; fasted): 37 nM
concentration at 8 h ([2]; fed (high-fat breakfast)): 1320 nM
concentration at 12 h ([2]; fed (high-fat breakfast)): 433 nM
concentration at 24 h ([2]; fed (high-fat breakfast)): 58 nM
Cmax ([2]; fasted): 2920 nM
Tmax ([2]; fasted): 2.6 h
AUC ([2]; fasted): 15.7 µM·h
Cmax ([2]; fed (high-fat breakfast)): 4230 nM
Tmax ([2]; fed (high-fat breakfast)): 3.7 h
AUC ([2]; fed (high-fat breakfast)): 25.3 µM·h
IC50 (CYPIIIA4): 30 µM
Compound: CC(C)(C)NC(=O)[C@@H]1CN(Cc2cc3ccccc3o2)CCN1C[C@@H](O)C[C@@H](Cc1ccccc1)C(=O)N[C@H]1c2ccccc2C[C@H]1O [Compound A, N-(2(R)-hydroxy-1(S)-indanyl)-2(R)-phenylmethyl-4-(S)-hydroxy-5-(1-(4-(2-benzo[b]furanylmethyl)-2(S)-N'-(t-butylcarboxamido)-piperazinyl))-pentaneamide]

— patent publication EP1044000B1, “COMBINATION THERAPY FOR THE TREATMENT OF AIDS” (MERCK & CO., INC., priority 1997, dated 1999)
